Assay [1] deals with T1, α7 nicotinic acetylcholine receptor (α7 nAChR) (Sus scrofa, UniProt F1SNR6).
T1 construct: gene CHRNA7; native receptor in pig cortex sections
Put plainly: displacement of […]Iodo-ASEM at […] by autoradiography. Conditions: read-out: [^125I]Iodo-ASEM Binding in the Pig Cortex, Layers 1-3 (%, mean ± S.E.M.).

For assay [2], the target named is T1, α7 nicotinic acetylcholine receptor (α7 nAChR). The assay is described as follows: displacement of […]Iodo-ASEM at […] by autoradiography; also blocks […]ASEM PET in vivo. The settings on record: read-out: [^125I]Iodo-ASEM Binding in the Pig Cortex, Layers 1-3 (%, mean ± S.E.M.).

T1 sequence (F1SNR6 20-499): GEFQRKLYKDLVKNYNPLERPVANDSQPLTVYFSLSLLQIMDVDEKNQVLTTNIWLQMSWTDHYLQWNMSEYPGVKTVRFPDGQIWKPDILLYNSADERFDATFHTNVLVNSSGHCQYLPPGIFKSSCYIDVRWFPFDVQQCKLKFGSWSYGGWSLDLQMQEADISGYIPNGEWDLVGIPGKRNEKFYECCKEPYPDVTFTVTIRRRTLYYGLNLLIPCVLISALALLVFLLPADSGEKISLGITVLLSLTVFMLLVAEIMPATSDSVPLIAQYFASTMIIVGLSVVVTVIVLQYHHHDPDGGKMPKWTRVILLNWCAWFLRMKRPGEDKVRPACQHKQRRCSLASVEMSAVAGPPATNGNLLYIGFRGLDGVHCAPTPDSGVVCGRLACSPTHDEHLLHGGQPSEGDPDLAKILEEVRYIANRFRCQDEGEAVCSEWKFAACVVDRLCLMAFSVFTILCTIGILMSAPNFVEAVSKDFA

With `CN1C[C@@H]2CN(c3ccc(-c4ccccc4)nn3)C[C@@H]2C1` [A-582941], in assay [1], the activity at 10 µM is 3.22 ± 0.28%.
On to `O=C(Oc1ccc(Br)cc1)N1CCN2CCC1CC2` [SSR-180,711], for which, in assay [2], the activity at 10 µM amounted to 2.92 ± 0.35%.
With `O=C(N[C@@H]1C2CCN(CC2)[C@H]1Cc1cccnc1)c1cc2ccccc2o1` [TC-5619], the activity at 10 µM in assay [1] is 7.88 ± 1.65%.
Regarding `CCN1C[C@]2(COC(=O)c3ccccc3N3C(=O)C[C@H](C)C3=O)CC[C@H](OC)[C@@]34[C@@H]5C[C@H]6[C@H](OC)[C@@H]5[C@](O)(C[C@@H]6OC)[C@@](O)([C@@H](OC)[C@H]23)[C@@H]14` [methyllycaconitine], the activity at 10 µM in assay [1] was 20.5 ± 2.18%.

Values taken from publication PMC7144377, “In Vitro and In Vivo Characterization of Dibenzothiophene Derivatives [^125I]Iodo-ASEM and [^18F]ASEM as Radiotracers of Homo- and Heteromeric α7 Nicotinic Acetylcholine Receptors” (Molecules, 2020).
